One series concerns C57BL6 mice. Kind of series: Toxicity in mice, intraperitoneal daily for 4 days (MTD, differential blood counts, serum chemistry). The class given is in vivo. The conditions noted are these: for Lymphocyte toxicity relative to wortmannin: percent decrease in lymphocyte counts at the MTD or highest dose tested; for Lymphocyte toxicity relative to wortmannin / Liver toxicity relative to wortmannie: wortmannin as 1.0; for Maximum tolerated dose: Ip qD x 4, MTD=>10% body weight loss, C57BL6 mice; for Liver toxicity relative to wortmannie: mean percent increase in serum ALT and AST at the MTD or highest dose tested. The text has this:
(§1) Highlighted are the compounds being made for antitumor testing.

For series [1], the target named is phesphatidylinositol-3-kinase. The series can be described thus: PI-3 kinase enzyme inhibition. The class given is biochemical. The conditions noted are these: read-out: P1-3 kinase Inhibition IC50.
Text: as §1

For another series, the target named is mTOR. The series can be described thus: mTOR enzyme inhibition. The conditions noted are these: dose to cause 50% inhibition. The class given is biochemical.
Text: as §1

The test system of series [2] is NCl cell panel. Kind of series: Cytotoxicity, MTT assay. The conditions noted are these: read-out: cytotoxieity NCl cell panel IC50. For orientation: Tetrazolium assays rely on reduction of a dye to a coloured formazan, in cell work by metabolically active cells.
The test system of series [3] is NCl cell panel. The conditions noted are these: nci cell panel, 48 h.
[4] abbreviates: 2 day MTT assay, mean of 60 cell lines.

pIC50: −log10 of the molar value. Where two headings read alike, the source gives them in different places.

This note sets out measurements from EP1435941B1 (ARIZONA BOARD OF REGENTS on behalf of THE UNIVERSITY OF …, priority 2001, dated 2003).

A word on the pIC50: it is −log10 of the IC50, conventionally taken in molar units. As to `COC[C@H]1OC(=O)/C(=C/NCC(N)=O)C2=C(O)C(=O)C3=C([C@H](OC(C)=O)C[C@]4(C)C(=O)CC[C@@H]34)[C@]21C` [DJM2-190], in the series on C57BL6 mice, the “Lymphocyte toxicity relative to wortmannin” value stood at 0.6. Further, the pIC50 in series [1] (dose to cause 50% inhibition) was 5.00; at mTOR it was less than 5.52; in the series on NCl cell panel [2] (setting [4]), 4.48.

With `COC[C@H]1OC(=O)c2coc3c2[C@@]1(C)C1=C(C3=O)[C@@H]2CCC(=O)[C@@]2(C)C[C@H]1OC(C)=O` [wortmannin, reference compound], the pIC50 in series [1] is 6.52; in the series on NCl cell panel [2] (Homo sapiens, 60 cell, 48 h), 5.05.

Compound `COC[C@H]1OC(=O)/C(=C/NC(C)C(=O)O)C2=C(O)C(=O)C3=C([C@H](OC(C)=O)C[C@]4(C)C(=O)CC[C@@H]34)[C@]21C` (stereo partly drawn) [DJM2-177] returned a Maximum tolerated dose in the series with C57BL6 mice of 6 mg/kg. Further, the “Liver toxicity relative to wortmannie” value in the series on C57BL6 mice is listed as 0.2. In addition, the “Lymphocyte toxicity relative to wortmannin” value in the series with C57BL6 mice is reported as 2.0. Moreover, the figures for the pIC50 (in series [1] (dose to cause 50% inhibition); against mTOR; in the series with NCl cell panel [2] (setting [4])) were 6.52, 5.82 and 4.99, respectively.

In the series on C57BL6 mice, `COC[C@H]1OC(=O)C(=CN(C)Cc2ccccc2)C2=C(O)C(=O)C3=C([C@H](OC(C)=O)C[C@]4(C)C(=O)CC[C@@H]34)[C@]21C` [DJM2-181, Acetic acid 4-[(benzylmethylamino)methylene]-6-hydroxy-1α-methoxymethyl-10β,13β-dimethyl-3,7,17-trioxo-1,3,4,7,10,11β,12,13, 14α,15,16,17-dodecahydro-2-oxa-cyclopenca[a]phenanthren-11-yl ester] had a Maximum tolerated dose greater than 18 mg/kg. The pIC50 was 7.00 in series [1] (dose to cause 50% inhibition), less than 5.52 on mTOR and 6.15 in the series on NCl cell panel [3].

As for `COC[C@H]1OC(=O)/C(=C/SCc2ccccc2)C2=C(O)C(=O)C3=C([C@H](OC(C)=O)C[C@]4(C)C(=O)CC[C@@H]34)[C@]21C` [DJM2-170], in the series with C57BL6 mice, the Maximum tolerated dose was determined as 9 mg/kg, the “Liver toxicity relative to wortmannie” value is on record as 1.7 and the “Lymphocyte toxicity relative to wortmannin” value is given as 1.1. The negative logarithm of the IC50 (pIC50) in series [1] (dose to cause 50% inhibition) was 6.00. At mTOR, the pIC50 was less than 5.52. Besides, the pIC50 with NCl cell panel [2] (setting [4]) was 5.15.

Take `COC[C@H]1OC(=O)/C(=C/N2CCCC2)C2=C(O)C(=O)C3=C([C@H](OC(C)=O)C[C@]4(C)C(=O)CC[C@@H]34)[C@]21C` [DJM2-167, Acetic acid 6-hydroxy-1α-methoxymethyl-10β,13β-dimethyl-3,7,17-trioxo-4-pyrrolidin-1-yl-methylene-1,3,4,7,10,11β,12,13,14α,15,16,17-dodecahydro-2-oxa-cyclopenta[a]phenanthren-11-yl]: the negative-log IC50 (pIC50) in series [1] (dose to cause 50% inhibition) is 5.96; in the series with NCl cell panel [3], 6.30.
